Assay results taken from US20110021531A1, “OXAZOLE DERIVATIVES USEFUL AS INHIBITORS OF FAAH” (priority 2009, published 2011).

How the values were obtained:
[1] = molecular target: T1, rat FAAH (Fatty Acid Amide Hydrolase) (Rattus norvegicus, UniProt P97612); assay: FAAH whole cell assay, CHO cells expressing rat FAAH; assay type: cell-based
T1 sequence (P97612 1-579): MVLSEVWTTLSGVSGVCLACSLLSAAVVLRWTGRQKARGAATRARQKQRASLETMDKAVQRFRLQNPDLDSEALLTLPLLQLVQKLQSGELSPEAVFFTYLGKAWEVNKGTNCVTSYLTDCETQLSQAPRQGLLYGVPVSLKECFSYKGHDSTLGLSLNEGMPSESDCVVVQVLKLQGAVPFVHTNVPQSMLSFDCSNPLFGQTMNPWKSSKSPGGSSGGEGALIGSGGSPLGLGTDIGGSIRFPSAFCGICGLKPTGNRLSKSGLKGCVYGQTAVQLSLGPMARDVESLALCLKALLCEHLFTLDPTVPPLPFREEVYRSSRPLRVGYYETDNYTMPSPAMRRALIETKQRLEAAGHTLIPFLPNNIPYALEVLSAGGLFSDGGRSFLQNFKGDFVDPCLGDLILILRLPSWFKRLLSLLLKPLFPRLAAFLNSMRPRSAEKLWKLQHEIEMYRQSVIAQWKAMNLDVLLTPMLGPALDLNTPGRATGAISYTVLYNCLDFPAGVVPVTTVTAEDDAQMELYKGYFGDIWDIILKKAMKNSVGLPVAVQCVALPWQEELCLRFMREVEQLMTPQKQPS
Source text: (§1) To assist in assay development stable cell lines for human, murine and rat full length FAAH were developed. Human FAAH cDNA (Accession No: NM_001441.1) was purchased from Origene (Rockville, Md.). The full length FAAH was subcloned into the mammalian expression vector, pcDEF.neo, using XbaI and EcoRI restriction sites and used for stable cell line generation.
(§2) Murine (accession number NM_010173) and Rat FAAH (accession number NM_024132) was amplified by reverse transcriptase polymerase chain reaction (RT-PCR) from brain cDNA (BD Biosciences, San Jose, Calif.) using primers 1 and 2 or primers 1 and 3 respectively (see Table). The resulting PCR product was ligated into pCR4 TOPO and DNA sequence confirmed. The full length murine FAAH was subcloned into the mammalian expression vector, pcDEFneo using either EcoRI (murine) or KpnI and EcoRI (rat) restriction sites. Chinese hamster ovary cells (CHO) were transfected following manufacturers protocol (AMAXA). Forty eight hours post transfection, cells were trypsinized and transferred to 96 well plates in Iscove's DMEM media supplemented with 2 mM Glutamine, 10% fetal calf serum, 1 mg/ml geneticin and HT Supplement (0.1 mM sodium hypoxanthine, 0.016 mM thymidine) in order to isolate single clones. Following selection in geneticin, individual clones were selected and FAAH activity was assessed using a whole cell fluorescent anandamide assay, modified from Ramarao et al (2005). Following removal of tissue culture media cells were dislodged following addition of Cellstripper (Mediatech, Inc. Manassas, Va.) and transferred to 96 well black clear bottom assay plate, centrifuged at 1,000 rpm for 3 mins and media removed and replaced with assay buffer (50 mM Iris pH8.0, 1 mM EDTA, 0.1% fatty acid free BSA). The reaction was initiated by addition of fluorescent substrate, AMC Arachidonoyl Amide (Cayman Chemical, Ann Arbor, Mich.) to 1 μM and reaction allowed to proceed for 2 hours at room temperature. Release of fluorescence was monitored in a CytoFluor Multiplate Reader. Cells expressing the highest amount of FAAH activity were selected for study with FAAH inhibitors.
(§3) (American Radiolabeled Chemicals; 1 mCi/ml) with FAAH (Life Sciences (1995), 56, 1999-2005 and Journal of Pharmacology and Experimented Therapeutics (1997), 283, 729-734), Analytical. Biochemistry (2003), 318, 270-5. In addition, routine assays were performed monitoring hydrolysis of arachidonyl-7-amino-4-methylcoumarin amide (AAMCA) by following increase in fluorescence upon release of 7-amino 4-methyl coumarin (λEX=355 nm, (λEM=460 nm). Analytical. Biochemistry (2005). 343, 143-51
(§4) Assays are performed on either cell lysate or microsome fractions prepared as described or in whole cell format employing either the fluorescent substrate AAMCA (Cayman chemical, Ann Arbor, Mich.,) or ^3H-anandmaide ([ETHANOLAMINE-1-3H]American Radiolabeled Chemicals; 1 mCi/ml). The cell lysate or microsome assay is performed in Costar black wall, clear bottom plates by adding FAAH_CF10 (whole cell, cell lysate or microsome) in assay buffer (50 mM Phosphate, pH 8.0, 1 mM EDTA, 200 mM KCl, 0.2% glycerol, 0.1% fatty acid free BSA) to each well, followed by either DMSO or compound and allowed to incubate at 22-25° C. for fifteen minutes. AAMCA substrate was used to achieve a final concentration of 1 μM and reaction allowed to proceed at room temperature for 1-3 hours. Fluorescent release as a measure of FAAH activity was monitored by reading the plate in a CytoFluor Multiplate Reader (Ex: […]). Whole cell assay is conducted with cells harvested after rinsing tissue culture flasks three times with Ca^++Mg^++ free PBS, incubating for 10 min in Enzyme free dissociation media and centrifuging for 5 minutes at 1,000 rpm in table top centrifuge. Cells are resuspended in assay buffer at desired cell number in (4×10^4 cells/assay in 96-well format; 1×10^4 cells/assay in 384-well format) and assayed as described.

[2] = molecular target: T2, human FAAH (Fatty Acid Amide Hydrolase) (Homo sapiens, UniProt O00519); assay: FAAH enzyme assay on lysate of CHO cells expressing human FAAH; assay type: biochemical
T2 construct: The full length FAAH was subcloned into the mammalian expression vector, pcDEF.neo
T2 sequence (O00519 1-579): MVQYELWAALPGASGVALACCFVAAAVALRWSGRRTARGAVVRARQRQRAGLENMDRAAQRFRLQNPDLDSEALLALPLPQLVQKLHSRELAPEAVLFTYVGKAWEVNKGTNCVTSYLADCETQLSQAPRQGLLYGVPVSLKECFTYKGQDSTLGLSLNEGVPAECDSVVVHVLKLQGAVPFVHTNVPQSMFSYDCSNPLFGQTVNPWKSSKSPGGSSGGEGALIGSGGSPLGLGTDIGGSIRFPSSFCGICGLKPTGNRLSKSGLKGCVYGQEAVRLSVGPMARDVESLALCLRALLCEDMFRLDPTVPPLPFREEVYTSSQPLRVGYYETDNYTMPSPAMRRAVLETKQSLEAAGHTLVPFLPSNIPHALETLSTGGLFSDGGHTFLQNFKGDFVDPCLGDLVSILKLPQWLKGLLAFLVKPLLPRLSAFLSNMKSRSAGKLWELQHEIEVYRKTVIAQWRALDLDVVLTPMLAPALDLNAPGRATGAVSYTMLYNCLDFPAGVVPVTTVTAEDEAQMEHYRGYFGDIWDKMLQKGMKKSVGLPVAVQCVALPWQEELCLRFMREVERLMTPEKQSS
Source text: as §1
CHO cells expressing FAAH were used to prepare either crude cell lysate or microsome fractions. To harvest cells, tissue culture media was decanted, the monolayer washed three times with Ca^++Mg^++ free PBS and cells recovered after […] in enzyme free dissociation media (Millipore Corp, Billerica, Mass.). Cells were collected by centrifuging at 2000 rpm for 15 min. and the cell pellet re-suspended with 50 mM HEPES (pH 7.4) containing 1 mM EDTA and the protease inhibitors aprotinin (1 mg/ml) and leupeptin (100 μM). The suspension was sonicated at 4° C. and the cell lysate recovered after centrifuging at 12,000×g (14,600 rpm, SS34 rotor) for 20 min at 4° C. to form a crude pellet of cell debris, nuclei, peroxisomes, lysosomes, and mitochondria; the supernatant or cell lysate was used for FAAH enzyme assay. In some cases, microsomes fractions enriched in FAAH were prepared by centrifuging the cell lysate further at 27,000 rpm (100,000×g) in SW28 rotor for 50 minutes at 4° C. The pellet containing FAAH-enriched microsomes was re-suspend in 50 mM HEPES, (pH 7.4) 1 mM EDTA, and any remaining DNA sheared by passage of material through a 23 gauge needle and aliquots of enzyme were store at −80° C. prior to use.
as §3, §4
Alternatively, assays are performed using anandamide [ethanolamine 1-^3H] (specific activity of 10 Ci/mmol) diluted with cold anandamide to achieve a final assay concentration of 1 μM anandamide (˜50,000 cpm). Enzyme (CHO cell lysate, brain or liver homogenate) is incubated in assay buffer (50 mM Phosphate, pH 8.0, 1 mM EDTA, 200 mM KCl, 0.2% glycerol, 0.1% fatty acid free BSA) with inhibitor at 25° C. for 30 minutes. The reaction was terminated by addition of 2 volumes of chloroform:methanol (1:1) and mixed by vortexing. […]

[3] = molecular target: T2, human FAAH (Fatty Acid Amide Hydrolase); assay: FAAH whole cell assay, CHO cells expressing human FAAH; assay type: cell-based
Source text: as §1, §2, §3, §4

Compound `COC(=O)c1cnc(-c2nc(-c3ccc(F)cc3)oc2Sc2ccc(Cl)cn2)nc1` [Ex 124, Methyl 2-{5-[(5-chloropyridin-2-yl)sulfanyl]-2-(4-fluorophenyl)-1,3-oxazol-4-yl}pyrimidine-5-carboxylate] has an IC50 [1] of 16 nM, an IC50 [2] of 11 nM and an IC50 [3] of 98 nM.

Work on `CC(C)(O)c1ccc(-c2nc(-c3ccc(F)cc3)oc2Sc2ccc(Cl)cn2)cn1` [Ex 12, 2-{5-[5-[(5-Chloropyridin-2-yl)thio]-2-(4-fluorophenyl)-1,3-oxazol-4-yl]pyridin-2-yl}propan-2-ol] yielded an IC50 [1] of 13 nM, an IC50 [2] of 19 nM and an IC50 [3] of 25 nM.

Work on `CC(C)(O)c1cc(-c2nc(-c3ccc(F)cc3)oc2Sc2ccc(Cl)cn2)on1` [Ex 98, 2-(5-{5-[(5-Chloropyridin-2-yl)sulfanyl]-2-(4-fluorophenyl)-1,3-oxazol-4-yl}isoxazol-3-yl)propan-2-ol] yielded an IC50 [1] of 35 nM, an IC50 [2] of 44 nM and an IC50 [3] of 222 nM.
